Experimental data: patent US8815937B2, “Lipoyl compounds and their use for treating ischemic injury” (Ischemix LLC, priority 2010, dated 2014)

How the values were obtained:
[1] = system: rat model of MI/AR injury (myocardial ischemia-reperfusion injury); test: Rat model of MI/AR injury (LCA ligation, myocardial ischemia-reperfusion); format: in vivo; details: for MI/AR Reduction (%): male Sprague-Dawley rats, compound given 15 minutes prior to ligation, intravenous, doses ranged 1-20 mg/kg, 24 hours after reperfusion, relative to vehicle controls; for Reduction in Cardiac injury: LCA rat model, procedure of Example 2
Description: A rat model of MI/AR injury was used as an in vivo screen to determine if the compounds of Tables 1-5 were cardio-protective (e.g., against myocardial ischemia-reperfusion injury). This model is analogous to the ischemia-reperfusion injury observed in cardiac patients following coronary occlusions and cardiac surgery procedures, such as coronary artery bypass grafting (CABG) (Matsui, T., Tao, J., del Monte, F., Lee, K.-H. et al., Akt Activation Preserves Cardiac Function and Prevents Injury After Transient Cardiac Ischemia In vivo, Circulation 2001, 104:330, the teachings of which are incorporated herein by reference in their entirety).
The circumflex branch of the left coronary artery (LCA) was ligated temporarily to induce regional ischemia in the left ventricular mass, followed by the injection of fluorescent microspheres to delineate the ischemic region. 15 minutes prior to ligation (pre-occlusion, pre-ischemic episode), a compound from Tables 1-5 was administered to the animals. Doses of the compounds listed in Tables 1-5 ranged from 1-20 mg/kg. The animals were sacrificed about 24 hours after reperfusion and the hearts were excised, sectioned and stained with triphenyltetrazolium. The direct impact of the pharmacologic intervention was determined by measuring the myocardial infarct area (MI), the ischemic area at risk (AR) and the left ventricular area (LV). The reduction of MI over the AR (MI/AR ratio) was used as the primary measure of drug efficacy relative to vehicle controls.
Male Sprague-Dawley rats between 300 and 350 g were used for these experiments. Anesthesia was induced with 3-4% isoflurane in an induction chamber. After induction, anesthesia was maintained at a surgical plane with 1.5-2.0% isoflurane, administered by a Rodent Ventilator through a 16-gauge angiocatheter introduced orally into the trachea. The ventilator was set at 2.5 cc at a rate of 60-65 breaths per minute to maintain ventilation during surgery. The core temperature of the animal was monitored and maintained at 37° C. using a rectal probe and a heating lamp attached to a temperature controller.
A left anterior thoracotomy was performed and the heart was exposed using a vertical pericardotomy. The circumflex branch of the left coronary artery (LCx) was ligated approximately 4 mm from the aorta using a cardiovascular 7.0 monofilament suture on an 11 mm needle to induce ischemia in the left ventricle.
Fluorescent microspheres (300 μL) were injected into the left ventricular cavity 10-20 minutes after the ligation to delineate the ischemic area. The suture was removed 30 minutes after ligation to reperfuse the ischemic area and the ischemic area was checked for reperfusion.
The chest was then closed in layers using absorbable suture (Dexon 5-0) for the muscle layers and monofilament Nylon 5-0 suture was used to close the cutaneous layer. The animals were allowed to recover, then were returned to the colony.
Twenty-four hours after reperfusion, anesthesia was induced using ketamine hydrochloride and the chest was opened. The animals were sacrificed with 15% potassium chloride aqueous solution (w/v) injected into the LV cavity to arrest the heart in diastole. The heart was excised distal to the aortic valve and washed with saline to remove the blood. Sagittal slices of the heart were obtained between the base of the ventricle and the apex. Five slices of heart tissue were obtained, each 2 mm thick. The slices were immersed in a 1% 2,3,5-triphenyl-2H-tetrazolium chloride (TTC) in saline solution and then stored in the dark for 30 minutes to stain.
Images of the slices were obtained under bright field (to observe the TTC staining) and under fluorescence (to observe the microspheres). The area at risk was determined by the absence of microspheres and the infarct area was determined by the absence of TTC staining.

[2] = system: PAC rat model of ischemia-induced renal injury; test: Partial aortic clamping (PAC) rat model of ischemia-induced renal injury; format: in vivo; details: for Reduction of SCr vs. control: serum creatinine 24 hours post-surgery; for serum creatinine concentrations relative to the control animals (in words): administered intravenously
Description: A partial aortic clamping (PAC) rat model of ischemia-induced renal injury was used as an in vivo screen to determine if RLip-EA-OH (Entry 1), RLip-Cya-OH (Entry 10), RLip-Tau (Entry 13), and RLip-aminoethylphosphonic acid (Entry 15) were renal-protective (e.g., against renal ischemia-reperfusion injury). This model simulates ischemia-reperfusion injury observed in renal patients following ischemia-induced renal failure (Molitoris, B. A., Dagher, P. C., Sandoval, R. M., Campos, S. B., Ashush, H., Fridman, E., Brafman, A. Faerman, A., Atkinson, S. J., Thompson, J. D., Kalinski, H., Skaliter, R., Erlich, S., Feinstein, E. “siRNA Targeted to p53 Attenuates Ischemic and Cisplatin-Induced Acute Kidney Injury.” J Am Soc Nephrol, 2009, vol. 20, 1754-1764, the teachings of which are incorporated herein by reference to their entirety). Serum creatinine concentrations (SCr) typically rise due to renal ischemia and effective treatment should show a reduction in serum creatinine concentrations.
The abdominal aorta just below the renal arteries was isolated and temporarily ligated to induce regional ischemia using an aortic clamp. An initial blood sample was drawn at study initiation for baseline creatinine measurement and at 24 hours post-surgery for functional evaluation of the severity of kidney injury. The animals were sacrificed about 24 hours after reperfusion.
Male Sprague-Dawley rats between 200 to 250 g were used for these experiments. Anesthesia was induced with 5% halothane and maintained with 1-1.5% halothane in oxygen-enriched air via a face mask. The rats were maintained on a warming blanket throughout the procedure to maintain body temperature at 37° C. After shaving the abdomen of the rat, a midline incision was made through the skin and musculature to expose the abdominal cavity to quantify the aortic blood flow (ABF).
Aortic clamps comprised of two 4-mm in length polyethylene tubes (PE-100, 0.86-mm diameter) were then placed around the aorta to induce renal ischemia. One clamp was placed around the aorta and the other was placed to exert variable tension via a 10-in. 3.0 silk suture. The silk thread was then tied and the tension on the two ends of the thread increased until there was a 90% reduction of initial (ABF) rate measured on the ultrasonic probe reader. A 10% baseline blood flow was maintained for a period of 30 minutes.
RLip-EA-OH (Entry 1) at 10 mg/kg; RLip-Cya-OH (Entry 10) at 3 mg/kg; RLip-Tau (Entry 13) at 3 mg/kg; and RLip-aminoethylphosphonic acid at 10 mg/kg, 3 mg/kg, and 1 mg/kg were administered intravenously via the femoral vein as a bolus dose 15 minutes prior to ischemia. A 0.15-mL venous blood sample was drawn at study initiation for baseline creatinine measurement and at 24 hours postsurgery for functional evaluation of the severity of kidney injury. Serum creatinine concentrations were then measured on a Creatinine Analyzer 2. The efficacy of RLip-EA-OH and RLip-Tau were measured against the results of vehicle-treated animals in the blinded studies. A 2-tail t-test was used to determine differences between treatments.

[3] = 3 mg/kg iv bolus 15 minutes prior to ischemia
[4] = 10 mg/kg iv bolus 15 minutes prior to ischemia

SMILES	MI/AR Reduction (%) [1] [%]	also measured
O=C(CCCC[C@@H]1CCSS1)Nc1ccc(C(=O)O)cc1 [Entry 17, N-(R)-lipoyl-para-aminobenzoic acid]	22	
O=C(CCCCC1CCSS1)NCCOS(=O)(=O)O [Entry 14, N-(R)-lipoyl-aminoethyl hydrogensulfate]	30	
O=C(O)CCNC(=O)CCCC[C@@H]1CCSS1 [Entry 12, N-(R)-lipoyl-β-alanine]	39	
O=C(CCCC[C@@H]1CCSS1)Nc1ccc(S(=O)(=O)O)cc1 [Entry 19, N-(R)-lipoyl-para-aminobenzene sulfonic acid]	44	
O=C(CCCCC1CCSS1)NC(CS(=O)(=O)O)C(=O)O [Entry 10, N-(R)-lipoyl-L-cysteic acid]	30	Reduction in Cardiac injury ([1]; dose group 3 mg/kg): 30%; Reduction of SCr vs. control [2, 3]: 39.5%; serum creatinine concentrations relative to the control animals (in words) [2]: effectively reduced serum creatinine concentrations
O=C(CCCCC1CCSS1)NC(Cc1ccc(O)cc1)C(=O)O [Entry 8, N-(R)-lipoyl-L-tyrosine]	29	
O=C(CCCCC1CCSS1)NC(Cc1ccc(C(=O)O)cc1)C(=O)O [Entry 6, N-(R)-lipoyl-L-4-carboxyphenylalanine]	26	
O=C(O)CNC(=O)C(CC(=O)O)NC(=O)CCCCC1CCSS1 [Entry 2, N-lipoyl-L-aspartylglycine]	28	
O=C(CCCC[C@@H]1CCSS1)Nc1cccc(S(=O)(=O)O)c1 [Entry 18, N-(R)-lipoyl-meta-aminobenzene sulfonic acid]	33	
O=C(O)CCC(NC(=O)CCCCC1CCSS1)C(=O)NCCS(=O)(=O)O [Entry 4, N-(R)-lipoyl-L-glutamyltaurine]	33	
CC(NC(=O)CCCCC1CCSS1)C(=O)NC(CCC(=O)O)C(=O)O [Entry 5, N-(R)-lipoyl-L-alanyl-L-glutamic acid]	24	
CC(NC(=O)C(CCC(=O)O)NC(=O)CCCCC1CCSS1)C(=O)O [Entry 1, N-(R)-lipoyl-L-glutamyl-L-alanine]	31	Reduction in Cardiac injury ([1]; dose group 10 mg/kg): 33%; Reduction of SCr vs. control [2, 4]: 39.5%; serum creatinine concentrations relative to the control animals (in words) [2]: effectively reduced serum creatinine concentrations
O=C(CCCC[C@@H]1CCSS1)NCCP(=O)(O)O [Entry 15, N-(R)-lipoyl-aminoethylphosphonic acid]	53	Reduction in Cardiac injury ([1]; dose group 1 mg/kg): 30%; Reduction in Cardiac injury ([1]; dose group 3 mg/kg): 50%; Reduction in Cardiac injury ([1]; dose group 10 mg/kg): 32%; Reduction of SCr vs. control ([2]; 1 mg/kg iv bolus 15 minutes prior to ischemia): 28.6%; Reduction of SCr vs. control [2, 3]: 28.6%; Reduction of SCr vs. control [2, 4]: 76.0%; serum creatinine concentrations relative to the control animals (in words) [2]: effectively reduced serum creatinine concentrations
O=C(O)CN(CC(=O)O)C(=O)CCCC[C@@H]1CCSS1 [Entry 11, N-(R)-lipoyliminodiacetic acid]	21	
O=C(CCCCC1CCSS1)NCCOP(=O)(O)O [Entry 16, N-(R)-lipoyl-aminoethyl dihydrogenphosphate]	47	
O=C(O)CCC(NC(=O)CCCCC1CCSS1)C(=O)O [Entry 9, N-(R)-lipoyl-L-glutamic acid]	33	
CC(NC(=O)C(Cc1ccc(O)cc1)NC(=O)CCCCC1CCSS1)C(=O)O [Entry 3, N-(R)-lipoyl-L-tyrosinyl-L-alanine]	31	
O=C(CCCCC1CCSS1)NC(CF)C(=O)O [Entry 7, N-(R)-lipoyl-fluoroalanine]	10	
O=C(CCCC[C@@H]1CCSS1)NCCS(=O)(=O)O [Entry 13, N-(R)-lipoyl-taurine]		Reduction in Cardiac injury ([1]; dose group 3 mg/kg): 50%; Reduction of SCr vs. control [2, 3]: 39.5%; serum creatinine concentrations relative to the control animals (in words) [2]: effectively reduced serum creatinine concentrations
